{"source": "paper PMC10666452", "about": "“Direct inhibition of dioxygenases TET1 by the rheumatoid arthritis drug auranofin selectively induces cancer cell death in T-ALL” (Journal of Hematology & Oncology, 2023)", "target": "T1, TET1 (TET1-CD) (Homo sapiens, UniProt Q8NFU7)", "T1 construct": "TET1 protein", "T1 sequence (Q8NFU7 1418-2136 limits assumed)": "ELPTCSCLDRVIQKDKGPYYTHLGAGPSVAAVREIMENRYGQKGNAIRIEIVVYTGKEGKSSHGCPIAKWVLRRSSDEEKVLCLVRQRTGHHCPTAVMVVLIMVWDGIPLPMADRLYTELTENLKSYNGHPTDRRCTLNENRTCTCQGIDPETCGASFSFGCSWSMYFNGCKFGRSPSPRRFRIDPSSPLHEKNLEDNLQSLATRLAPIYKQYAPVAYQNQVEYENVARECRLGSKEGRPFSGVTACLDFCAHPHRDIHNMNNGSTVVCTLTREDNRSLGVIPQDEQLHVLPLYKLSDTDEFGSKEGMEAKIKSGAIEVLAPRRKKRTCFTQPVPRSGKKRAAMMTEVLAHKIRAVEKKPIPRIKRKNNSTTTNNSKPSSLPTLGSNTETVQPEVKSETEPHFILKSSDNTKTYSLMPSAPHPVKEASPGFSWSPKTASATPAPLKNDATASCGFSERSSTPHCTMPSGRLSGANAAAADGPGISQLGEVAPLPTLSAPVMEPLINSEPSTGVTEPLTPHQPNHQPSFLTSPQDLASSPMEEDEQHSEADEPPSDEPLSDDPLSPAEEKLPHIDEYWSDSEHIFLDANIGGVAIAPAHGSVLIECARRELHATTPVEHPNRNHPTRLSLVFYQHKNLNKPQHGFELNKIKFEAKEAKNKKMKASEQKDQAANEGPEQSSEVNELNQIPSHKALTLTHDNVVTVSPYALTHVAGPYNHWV", "assay": "SPR competition against auranofin", "format": "binding", "details": "competes with auranofin, 2-OG analogue"}
{"smiles": "O=C(O)CNC(=O)C(=O)O", "note": "[NOG]", "values": [{"measurement": "SPR competition against auranofin", "result": "both NOG and Fe (II) compete with auranofin for binding to TET1-CD"}]}
